Structures can show the parent of a compound that is named as a salt.

As a reminder, the IC50 is the point on the concentration scale where inhibition reaches its midpoint. Higher therefore signals weaker potency. What is called inhibition is the relative decrease from the control value, in per cent.

Common to all, as to assay type: biochemical
In one experiment the target is PDE 4. Kind of experiment: PDE 4 enzyme inhibition (SPA). To be noted: PDE 4 purified from human PMNs; cAMP 1 μM. The procedure: a) Human Polymorphonuclear Leukocyte Isolation
The polymorphonuclear leukocytes (PMNs) were isolated from peripheral blood of healthy volunteers according to Boyum A. (Scand. J. Immunol., 1976, 5th suppl., 9). Briefly, the PMNs were purified by Ficoll-Paque gradient centrifugation followed by sedimentation on dextran and the erythrocyte contamination was eliminated by hypotonic lysis.
b) PDE 4 Enzyme Purification
The human PMNs were suspended in TRIS/HCl buffer (10 mM, pH 7.8) containing MgCl2 (5 mM), EGTA (4 mM), mercaptoethanol (5 mM), TRITON-X100 (1%), pepstatin A (1 μM), PMSF (100 μM) and leupeptin (1 μM), and homogenised by Polytron homogeniser. The homogenate was centrifuged at 25,000×g for 30 minutes at 4° C. and the PDE 4 enzyme was purified by ion exchange chromatography using the FPLC technique according to Schudt C. et al. (Naunyn-Schmidberg's Arch. Pharmacol., 1991, 334, 682). The supernatant was seeded on a UNO Q12 column (Bio-Rad) and the enzyme was eluted by sodium acetate linear gradient from 50 mM to 1M using a flow rate of 4.5 ml/minutes. The fractions containing enzymatic activity were pooled, dialysed against water and concentrated. The PDE 4 enzyme was stored at, −20° C. in the presence of ethylene glycol (30% v/v) until the use.
The enzyme activity was evaluated with a Scintillation Proximity Assay (SPA) kit (Amersham). The enzymatic reaction was performed in a final volume of 100 μl of TRIS/HCl buffer (50 mM, pH 7.5), MgCl2 (8.3 mM), EGTA (1.7 mM), cAMP (1 μM) and [^3H]cAMP (˜100.000 dpm) as tracer. The compounds of the invention, the reference ones or the vehicle were added at different concentrations. As reference compounds 6,7-dimethoxy-4-pyridin-4-yl-methyl)2H-phthalazin-1-one (reference 1) and 6,7-dimethoxy-4-(piperidin-4-yl-methyl)2H-phthalazin-1-one (reference 2) embraced by the general formula of the patent application EP-0 722 936 (in the name of Eisai) were used. The reaction was started by adding 1.5 μg protein and incubated for 40 minutes at 30° C. SPA beads (50 μl) containing 18 mM zinc sulphate were added to stop the reaction and after 20 minutes at room temperature the radioactivity was measured using a scintillation counter.
The IC50 value refers to the nanomolar concentration of the compound required to inhibit cyclic nucleotide hydrolysis by 50%, and it was calculated by non-linear regression analysis.

For a further experiment, the target named is T1, PDE 5 (Homo sapiens, UniProt O76074).
T1 construct: The fractions containing the enzymatic activities (PDE 3 or PDE 5) were pooled; from tissue; host or cells: human platelets from platelet rich plasma of healthy volunteers
As to the kind of experiment: PDE 5 enzyme inhibition (SPA). To be noted: 10^−6 M; PDE 5 from human platelets; cGMP. The procedure:
(§1) a) Human Platelet Preparation
(§2) Human platelets were prepared from platelet rich plasma (PRP) obtained from healthy volunteers. The PRP was centrifuiged at 2,200 rpm for 15 minutes at 4° C. and the pellet was suspended in lysis solution (15 ml; 155 mM NH4Cl, 10 mM KHCO3 and 0.1 mM Na2EDTA, pH=7.4) and incubated for 10 minutes on ice-bath to remove the erythrocyte contamination. After centrifugation at 1,400 rpm for 10 minutes at 4° C., platelets were suspended in 10 ml of […], 5 mM KCl, 1 mM MgSO4, 10 mM glucose, 10 mM HEPES (pH 7.4) and 0.05 U/ml of hirudin, and stored at −20° C. until homogenisation. Platelets were thawed and 50 ml of 20 mM TRIS (pH=6.5) containing 5 mM β-mercapto-ethanol, 2 mM EDTA, 50 mM sodium acetate and 50 μM PMSF (homogenisation buffer) were added. The platelet suspension was then homogenised by a Polytron homogeniser (Polytron PT 1200) for 20 seconds. The homogenate was centrifuged at 14,500 rpm for 20 minutes at 4° C., and the supernatant was applied to an UNO Q12 column (Bio-Rad). The PDE 3 and PDE 5 were eluted by sodium acetate linear gradient from 0.05M to 1M using a flow rate of 4.5 ml/minutes. The fractions containing the enzymatic activities (PDE 3 or PDE 5) were pooled, dialysed against water and concentrated 10 times by ultrafiltration. The PDE 3 and PDE 5 fractions were stored at −20° C. in the presence of ethylene glycol (30% v/v) until use.
(§3) b) PDE 3 and PDE 5 Activity Assay
(§4) The enzyme activity was evaluated with a Scintillation Proximity Assay (SPA) kit (Amersham). The enzymatic reaction was performed in a final volume of 100 μl of TRIS/HCl buffer (50 mM, pH7.5), MgCl2 (8.3 mM), EGTA (1.7 mM), cAMP (for PDE 3 assay) or cGMP (for PDE 5 assay) (1 μM), [^3H]cAMP or [^3H]cGMP (10 μl ), and 10 μl of the compounds of the invention or vehicle. The reaction was started by adding the enzyme (1.0 μg) and incubated for 40 minutes at 30° C. SPA beads (50 μl) containing 18 mM zinc sulphate were added to stop the reaction and after 20 minutes at room temperature the radioacticity was measured using a scintillation counter.
(§5) The compounds were tested at 10^−6M and the results are expressed as percent of inhibition.

The target of the next experiment is T2, PDE 3 (Homo sapiens, UniProt Q14432).
T2 construct: The fractions containing the enzymatic activities (PDE 3 or PDE 5) were pooled; from tissue; host or cells: human platelets from platelet rich plasma of healthy volunteers
Kind of experiment: PDE 3 enzyme inhibition (SPA). To be noted: 10^−6 M; PDE 3 from human platelets; cAMP. The procedure:
as §1, §2, §3, §4, §5

T2 sequence (Q14432 whole entry): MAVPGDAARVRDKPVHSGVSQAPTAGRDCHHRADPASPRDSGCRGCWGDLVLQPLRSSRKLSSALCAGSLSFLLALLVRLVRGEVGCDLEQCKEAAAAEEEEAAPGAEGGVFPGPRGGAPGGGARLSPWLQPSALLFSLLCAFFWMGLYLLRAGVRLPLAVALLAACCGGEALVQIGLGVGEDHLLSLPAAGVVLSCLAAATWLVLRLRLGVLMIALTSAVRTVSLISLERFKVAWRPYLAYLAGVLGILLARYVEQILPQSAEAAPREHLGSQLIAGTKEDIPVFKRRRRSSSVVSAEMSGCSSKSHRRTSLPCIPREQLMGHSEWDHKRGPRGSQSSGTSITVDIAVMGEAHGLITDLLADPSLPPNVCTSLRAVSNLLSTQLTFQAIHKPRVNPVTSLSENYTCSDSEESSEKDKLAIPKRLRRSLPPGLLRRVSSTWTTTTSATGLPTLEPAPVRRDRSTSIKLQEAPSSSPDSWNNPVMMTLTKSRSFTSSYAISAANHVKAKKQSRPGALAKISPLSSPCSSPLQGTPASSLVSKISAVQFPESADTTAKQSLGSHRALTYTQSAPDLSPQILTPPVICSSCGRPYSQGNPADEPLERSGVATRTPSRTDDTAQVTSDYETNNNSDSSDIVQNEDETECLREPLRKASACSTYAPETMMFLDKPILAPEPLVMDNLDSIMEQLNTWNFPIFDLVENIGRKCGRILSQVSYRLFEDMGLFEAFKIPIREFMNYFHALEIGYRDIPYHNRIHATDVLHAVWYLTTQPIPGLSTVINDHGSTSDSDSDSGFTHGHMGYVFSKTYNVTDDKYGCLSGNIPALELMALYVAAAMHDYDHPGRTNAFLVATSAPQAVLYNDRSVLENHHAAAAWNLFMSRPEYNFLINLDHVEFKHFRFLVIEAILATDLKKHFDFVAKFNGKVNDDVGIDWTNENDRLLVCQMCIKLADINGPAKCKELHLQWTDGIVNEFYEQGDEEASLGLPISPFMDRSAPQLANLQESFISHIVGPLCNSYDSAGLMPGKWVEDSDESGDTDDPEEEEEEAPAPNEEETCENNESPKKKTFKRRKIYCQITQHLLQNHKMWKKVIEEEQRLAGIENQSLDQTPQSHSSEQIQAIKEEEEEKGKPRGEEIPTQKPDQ

For the compound `COc1ccc2c(c1)CN(C(=O)Cc1ccccc1)N=C2Cc1c(Cl)cncc1Cl` [Compound 13, 1-[4-(3,5-Dichloro-pyridin-4-ylmethyl)-7-methoxy-1H-phthalazin-2-yl]-2-phenyl-ethanone], the IC50 against PDE 4 is 12 ± 2 nM. Still for that read-out and setting: then `COc1ccc2c(c1)CN(C(=O)c1ccccc1)N=C2Cc1c(Cl)cncc1Cl` [Compound 12, [4-(3,5-Dichloro-pyridin-4-ylmethyl)-7-methoxy-1H-phthalazin-2-yl]-phenyl-methanone], with 30 ± 8 nM.

Take `COc1ccc2c(Cc3c(Cl)cncc3Cl)nn(CCCCCc3ccccc3)c(=O)c2c1` [Compound 23, 4-(3,5-Dichloro-pyridin-4-ylmethyl)-7-methoxy-2-(5-phenyl-pentyl)-2H-phthalazin-1-one]: the inhibition at 1 µM at PDE 5 was found to be 21%; on PDE 3, 19%. In addition, it took 209 ± 26 nM to reach half-maximal inhibition at PDE 4 (IC50).

Take `COc1ccc2c(Cc3c(Cl)cncc3Cl)nnc(C#Cc3ccccc3)c2c1` [Compound 27, 1-(3,5-Dichloro-pyridin-4-ylmethyl)-6-methoxy-4-phenylethynyl-phthalazine]: the inhibition at 1 µM against PDE 5 came out at 9%; on PDE 3, 15%. For the same compound, inhibition at PDE 4 was half-maximal at 48 ± 12 nM (IC50). Regarding `COc1ccc2c(Cc3c(Cl)cncc3Cl)nnc(-c3nccs3)c2c1` [Compound 26, 1-(3,5-Dichloro-pyridin-4-ylmethyl)-6-methoxy-4-thiazol-2-yl-phthalazine], the inhibition at 1 µM on PDE 5 is 0%. For the same compound, the IC50 against PDE 4 was determined as 14 ± 2 nM. For `COc1ccc2c(c1)CN(S(C)(=O)=O)N=C2Cc1c(Cl)cncc1Cl` [Compound 15, 4-(3,5-Dichloro-pyridin-4-ylmethyl)-2-methanesulfonyl-7-methoxy-1,2-dihydro-phthalazine], the inhibition at 1 µM turned out to be 0% against PDE 5 and 15% against PDE 3. For the same compound, on PDE 4, the IC50 was determined as 21 ± 4 nM. The like results for `C#Cc1nnc(Cc2c(Cl)cncc2Cl)c2ccc(OC)cc12` [Compound 60, 1-(3,5-Dichloro-pyridin-4-ylmethyl)-4-ethynyl-6-methoxy-phthalazine] were, in that order, 1%, -2% and 93 ± 29 nM. The like results for `CNC(=O)N1Cc2cc(OC)ccc2C(Cc2c(Cl)cncc2Cl)=N1` [Compound 17, 4-(3,5-Dichloro-pyridin-4-ylmethyl)-7-methoxy-1H-phthalazine-2-carboxylic acid methyl-amide] were, in that order, 21%, 12% and 131 ± 24 nM. Take `FC(F)Oc1ccc2c(Cc3c(Cl)cncc3Cl)nnc(N3CCOCC3)c2c1` [Compound 55, 1-(3,5-Dichloro-pyridin-4-ylmethyl)-6-difluoromethoxy-4-morpholin-4-yl-phthalazine]: on PDE 4, half-maximal inhibition (IC50) required 312 ± 48 nM. `COc1ccc2c(Cc3c(Cl)cncc3Cl)nn(S(C)(=O)=O)c(=O)c2c1` [Compound 24, 4-(3,5-Dichloro-pyridin-4-methyl)-2-methanesulfonyl-7-methoxy-2H-phthalazin-1-one] gave an IC50 on PDE 4 of 36 ± 9 nM. With `COc1ccc2c(Cc3c(Cl)cncc3Cl)nn(CCc3ccccc3)c(=O)c2c1` [Compound 22, 4-(3,5-Dichloro-pyridin-4-ylmethyl)-7-methoxy-2-phenethyl-2H-phthalazin-1-one], the inhibition at 1 µM worked out at 8% on PDE 5 and 20% at PDE 3. This compound showed an IC50 against PDE 4 of 225 ± 35 nM. For the compound `COc1ccc2c(c1)CN(C(N)=O)N=C2Cc1c(Cl)cncc1Cl` [Compound 9, 4-(3,5-Dichloro-pyridin-4-ylmethyl)-7-methoxy-1H-phthalazine-2-carboxylic acid amide], on PDE 4, the 50% inhibitory concentration (IC50) was 36 ± 4 nM. Take `COc1ccc2c(Cc3c(Cl)cncc3Cl)nncc2c1C#CCN(C)Cc1ccccc1` [Compound 35, Benzyl-{3-[1-(3,5-dichloro-pyridin-4-ylmethyl)-6-methoxy-phthalazin-5-yl]-prop-2-ynyl}-methyl-amine dihydrochloride]: the IC50 on PDE 4 was 7.1 ± 0.5 nM. On to `CCn1nc(Cc2c(Cl)cncc2Cl)c2ccc(OC)cc2c1=O` [Compound 20, 4-(3,5-Dichloro-pyridin-4-ylmethyl)-2-ethyl-7-methoxy-2H-phthalazin-1-one], for which the inhibition at 1 µM was determined as 11% against PDE 5 and 5% on PDE 3. Further, the 50% inhibitory concentration (IC50) at PDE 4 was 158 ± 34 nM. For the compound `COC(=O)N1Cc2cc(OC)ccc2C(Cc2c(Cl)cncc2Cl)=N1` [Compound 16, 4-(3,5-Dichloro-pyridin-4-ylmethyl)-7-methoxy-1H-phthalazine-2-carboxylic acid methyl ester], at PDE 4, the IC50 came to 72 ± 16 nM. The same measure, in the same setting: as for `CCC(=O)N1Cc2cc(OC)ccc2C(Cc2c(Cl)cncc2Cl)=N1` [Compound 10, 1-[4-(3,5-Dichloro-pyridin-4-ylmethyl)-7-methoxy-1H-phthalazin-2-yl]-propan-1-one], the figure is 28 ± 4 nM; as for `COc1ccc2c(Cc3c(Cl)cncc3Cl)nncc2c1C=CCCCc1ccccc1` [Compound 33, 1-(3,5-Dichloro-pyridin-4-ylmethyl)-6-methoxy-5-(5-phenyl-pent-1-enyl)phthalazine], 19 ± 3 nM; as for `COc1ccc2c(Cc3c(Cl)cncc3Cl)nncc2c1C#CCCCc1ccccc1` [Compound 32, 1-(3,5-Dichloro-pyridin-4-ylmethyl)-6-methoxy-5-(5-phenyl-pent-1-ynyl)-phthalazine], 10 ± 2 nM. As for `FC(F)Oc1ccc2c(Cc3c(Cl)cncc3Cl)nnc(-n3cncn3)c2c1` [Compound 54, 1-(3,5-Dichloro-pyridin-4-ylmethyl)-6-difluoromethoxy-4-[1,2,4]triazol-1-yl-phthalazine], the inhibition at 1 µM was found to be 33% against PDE 5 and 2% against PDE 3. The compound `COc1ccc2c(Cc3c(Cl)cncc3Cl)nncc2c1C#CCCCN1CCOCC1` [Compound 36, 1-(3,5-Dichloro-pyridin-4-ylmethyl)-6-methoxy-5-(5-morpholin-4-yl-pent-1-ynyl)-phthalazine dihydrochloride] yielded an IC50 on PDE 4 of 96.4 ± 7.3 nM. On to `COc1ccc2c(Cc3c(Cl)cncc3Cl)nncc2c1C#CCO` [Compound 37, 3-[1-(3,5-Dichloro-pyridin-4-ylmethyl)-6-methoxy-phthalazin-5-yl]-prop-2-yn-1-ol], for which, on PDE 4, the IC50 was determined as 61 ± 2.4 nM. With `COc1ccc2c(c1)CN(C(=O)C(C)C)N=C2Cc1c(Cl)cncc1Cl` [Compound 11, 1-[4-(3,5-Dichloro-pyridin-4-ylmethyl)-7-methoxy-1H-phthalazin-2-yl]-2-methyl-propan-1-one], the figures for the inhibition at 1 µM on PDE 5 and at PDE 3 were 10% and 17%, respectively. This compound also gave an IC50 on PDE 4 of 26 ± 3 nM.
